Data set [1] is described as follows: Half life in plasma of NOD-SCID mouse model xenografted with human PC-3 cells at 25 mg/kg, IG measured upto 48 hrs by LC-MS/MS analysis. The conditions noted are these: po. Format: ADME, organism-based.
Data set [2] deals with A549. The experiment in a line: Antitumor activity against human A549 cells with low Skp2 expression assessed as cell growth inhibition incubated for 72 hrs by MTT assay. The format is functional, cell-based. The conditions noted are these: A549, 72 h. In general terms: Tetrazolium assays rely on reduction of a dye to a coloured formazan, in cell work by metabolically active cells.

Data set [3] relates to NCI-N87. The data set is described as follows: Antitumor activity against human NCI-N87 cells with low Skp2 expression assessed as cell growth inhibition incubated for 72 hrs by MTT assay. Format: functional, cell-based. The conditions noted are these: NCI-N87, 72 h.
In data set [4] the test system is MGC-803. The experiment in a line: Downregulation of Skp2 level in human MGC-803 cells incubated for 48 hrs by Western blot analysis. The format is functional, cell-based. Conditions: dose <= 10.0 µM. (Immunoblotting shows a protein as a band on a membrane.)
Data set [5] concerns MGC-803. The data set is described as follows: Upregulation of p21 level in human MGC-803 cells upto 10 uM by Western blot analysis. The conditions noted are these: time 48.0 hrs, TDE = time-dependent effect. Format: functional, cell-based.
In data set [6] the test system is PC-3. The data set is described as follows: Inhibition of colony formation in human PC-3 cells at 0.5 to 2 uM incubated for 10 days by crystal violet staining based microscopy. Conditions: dose 0.5-2 µM, time 10.0 day. The format is functional, cell-based.
In data set [7] the test system is MGC-803. The data set is described as follows: Inhibition of cell migration in human MGC-803 cells incubated for 48 hrs by wound healing assay. Format: functional, cell-based. Conditions: dose <= 2.0 µM.
Data set [8] has as its system MGC-803. The data set is described as follows: Inhibition of cell migration in human MGC-803 cells by transwell invasion assay. The format is functional, cell-based. Conditions: dose <= 2.0 µM.
Data set [9] relates to PC-3. The data set is described as follows: Induction of cell cycle arrest in human PC-3 cells assessed as accumulation of cells at G1 phase at 5 uM incubated for 48 hrs by flow cytometry (reference value: 57.39 %). Format: functional.
For data set [10], the system named is PC-3. The data set is described as follows: Induction of cell cycle arrest in human PC-3 cells assessed as accumulation of cells at S phase at 10 uM incubated for 48 hrs by flow cytometry (reference value: 22.44 %). The format is functional.
Data set [11] has as its system PC-3. The data set is described as follows: Induction of cell cycle arrest in human PC-3 cells assessed as accumulation of cells at G1 phase at 10 uM incubated for 36 hrs by flow cytometry (reference value: 56.81 %). Format: functional.
For data set [12], the system named is MGC-803. The experiment in a line: Induction of cell cycle arrest in human MGC-803 cells assessed as accumulation of cells at S phase at 10 uM incubated for 6 hrs by flow cytometry (reference value: 20.41 %). Format: functional. For orientation: Flow cytometry measures light scatter and fluorescence of single cells or particles in a stream.
Data set [13] concerns MGC-803. The experiment in a line: Induction of cell cycle arrest in human MGC-803 cells assessed as accumulation of cells at G2 phase at 10 uM incubated for 6 hrs by flow cytometry (reference value: 20.64 %). Format: functional.
For data set [14], the system named is MGC-803. The data set is described as follows: Induction of cell cycle arrest in human MGC-803 cells assessed as accumulation of cells at G1 phase at 10 uM incubated for 36 hrs by flow cytometry (reference value: 57.09 %). Format: functional.
For data set [15], the system named is MGC-803. The experiment in a line: Induction of cell cycle arrest in human MGC-803 cells assessed as accumulation of cells at S phase at 10 uM incubated for 48 hrs by flow cytometry (reference value: 20.41 %). Format: functional.
Data set [16] concerns PC-3. The experiment in a line: Induction of apoptosis in human PC-3 cells assessed as nuclear condensation incubated for 48 hrs. Format: functional, cell-based. The conditions noted are these: dose <= 10.0 µM.
The test system of data set [17] is MGC-803. The data set is described as follows: Induction of apoptosis in human MGC-803 cells assessed as nuclear fragmentation incubated for 48 hrs. Format: functional, cell-based. Conditions: dose <= 10.0 µM.
In data set [18] the test system is PC-3. The experiment in a line: Antitumor activity against human PC-3 cells xenografted in NOD-SCID mouse model assessed as downregulation of ki67 level at 10 to 50 mg/kg, IG administered once every 2 days for 21 days by Western blot analysis. Format: functional, organism-based. The conditions noted are these: dose 10-50 mg/kg, time 21.0 day.
The subject of data set [19] is PC-3. The data set is described as follows: Antitumor activity against human PC-3 cells xenografted in NOD-SCID mouse model assessed as increase in apoptosis in tumor tissue at 10 to 50 mg/kg, IG administered once every 2 days for 21 days by TUNEL staining based analysis. The format is functional, organism-based. The conditions noted are these: dose 10-50 mg/kg, time 21.0 day.

Data set [20] in a line: Toxicity in NOD-SCID mouse model xenografted with human PC-3 cells assessed as change in lung histology at 10 to 50 mg/kg, IG administered once every 2 days for 21 days by H and E staining based analysis. The format is organism-based. The conditions noted are these: in vivo, po, 504 h, dose 10-50 mg/kg, time 21 day.
The subject of data set [21] is MGC-803. The experiment in a line: Antitumor activity against human MGC-803 cells xenografted in NOD-SCID mouse model assessed as p21 accumulation at 10 to 50 mg/kg, IG administered once every 2 days for 21 days by Western blot analysis. The format is functional, organism-based. Conditions: dose 10-50 mg/kg, time 21.0 day.
A short description of data set [22]: Toxicity in NOD-SCID mouse model xenografted with human MGC-803 cells assessed as change in liver histology at 10 to 50 mg/kg, IG administered once every 2 days for 21 days by H and E staining based analysis. The format is organism-based. The conditions noted are these: in vivo, po, 504 h, dose 10-50 mg/kg, time 21 day.
Data set [23] is described as follows: Toxicity in NOD-SCID mouse model xenografted with human MGC-803 cells assessed as change in spleen histology at 10 to 50 mg/kg, IG administered once every 2 days for 21 days by H and E staining based analysis. Format: organism-based. The conditions noted are these: in vivo, po, 504 h, dose 10-50 mg/kg, time 21 day.
The nature of data set [24]: MRTlast in tumor of NOD-SCID mouse model xenografted with human PC-3 cells at 25 mg/kg, IG measured upto 48 hrs by LC-MS/MS analysis. Format: ADME, organism-based, Neoplasm. Conditions: po.

pIC50: −log10 of the molar value. Calls of active or inactive are those of the source.

The compound `O=C(CCl)NC1CCN(c2cnc(-c3ccccc3)c(-c3ccccc3)n2)CC1` gave a half-life in [1] of 14.1 h. The pIC50 is 4.74 in data set [2] and 4.81 in data set [3]. The Activity entry was “Dose-Dependent Effect” in [4]; “Tde” in [5]; 44.65% in [9]; 43.58% in [10]; 33.46% in [11]; 29.93% in data set [12]. In addition, the Activity in [13] was 17.82%; in [14] it was 35.48%; in [15] it was 38.76%; in [16], “Dose-Dependent Effect”; in [17], “Dose-Dependent Effect”; in data set [20], “Non-Toxic”. Besides, the Activity entry in data set [22] and in data set [23] was “Non-Toxic” in each case. The inhibition result in [6] is “Active”. The inhibition result in [7] and in [8] was “Dose-Dependent Effect” throughout. Besides, the result in [18], in data set [19] and in data set [21] was Active. Further, the MRT last at 48 h in data set [24] was 9.9 h.

Broadly, the half-life is the time needed for the level to fall by half in the phase considered. The pIC50 is −log10 of the IC50, conventionally taken in molar units. One may read the MRT last as the average time that molecules of a dose stay in the body.

Values taken from ChEMBL document CHEMBL5338791, “Discovery of Novel 1,3-Diphenylpyrazine Derivatives as Potent S-Phase Kinase-Associated Protein 2 (Skp2) Inhibitors for the Treatment of Cancer” (J Med Chem, 2023).
